Data from patent publication US20090281156A1, “ENHANCING PHOTOSTABILIZATION OF OXYMETAZOLINE” (Schering-Plough Healthcare Products, Inc,, priority 2007, published 2009).
Counter-ions that a name gives are not always drawn. One block for each compound: values may come before it.

Assays:
[1] = in vivo; cited from earlier work
[2] = exemplary conventional formulation; cited from earlier work
[3] = ICH photostability testing of oxymetazoline HCl solutions (quartz container, twice ICH exposure); format: physicochemical; conditions: for drug degraded after UV light exposure: McIlvaine buffer pH=6
Description: 0.05% (w/v) oxymetazoline HCl solutions with pH ranging from 4 to 6 were prepared using McIlvaine buffer systems (Solutions I-III). At each pH level, 0.05% oxymetazoline HCl solutions containing either Povidone 29-32 (approximately 3% w/v) or PEG 1450 (approximately 5% w/v) were also made ([…]).
Example embodiments were tested for photostability according to methods described in ICH Harmonized Tripartite Guidelines Stability Testing: Photostability Testing of New Drug Substances and Products. Each sample for photostability studies was placed in an enclosed quartz container and exposed to twice the exposure required by ICH photostability guideline (total exposure of 2.4 million lux hours and an integrated near UV energy of 400 watt hours/square meter).
All of the observed oxymetazoline HCl degradation peaks were calculated and presented in percentage.

SMILES: CN1CCC(=C2c3ccccc3CCc3cccnc32)CC1 [Azatadine]
elimination half-life [1]: 9 to 12 h

SMILES: CCOC(=O)N1CCC(=C2c3ccc(Cl)cc3CCc3cccnc32)CC1 [loratadine]
antihistaminic effect lasts [2]: > 24 h

drug degraded after UV light exposure ([3]; 24 hours of UV light exposure): roughly 9%
drug degraded after UV light exposure ([3]; 40 hours of UV light exposure): ~72%
light sensitivity ([3]; aqueous solution): light sensitive
increase in the total degradation on incorporating PEG 1450 ([3]; pH 5, T=40 hours, PEG 1450 approximately 5% w/v): roughly 4 fold
increase in the total photodegradation in presence of Povidone K29-32 ([3]; pH=6, T=40 hours, Povidone K29-32 approximately 3% w/v): about 21%
SMILES: Cc1cc(C(C)(C)C)c(O)c(C)c1CC1=NCCN1 [oxymetazoline HCl, 6-tert-butyl-3-(2-imidazolin-2-ylmethyl)-2,4-dimentylphenol hydrochloride]
